Assay results published in patent US20060269482A1 (priority 2005, published 2006).

Assays:
[1] = tested on: Rb phosphorylation in cells; details: literature report; cited from earlier work
phosphorylated Rb = details: phase 1, in combination with docetaxel, cited from earlier work
[2] = tested on: Rb phosphorylation in tumor xenografts; details: literature report; cited from earlier work
[3] = tested on: Rb phosphorylation in human PBMCs; experiment: Rb phosphorylation in human PBMCs stimulated ex vivo with PMA; assay type: cell-based
Experimental: Approximately 10 mls of blood was collected from five healthy human volunteers into sodium heparin treated Vacutainer blood collection tubes by Employee Health Services. PBMCs were separated using the Lymphocyte Separation Medium (LSM) and protocol supplied by ICN Biomedicals Inc. (Costa Mesa, Calif.). Briefly whole blood was diluted 1:1 with cold HBSS (Hanks Balanced Salt Solution), layered onto the LSM and centrifuged. The band of mononuclear cells above the LSM was collected, transferred to a new tube and washed once with cold HBSS. Cells were resuspended in RPMI 1640, 10% HI-FBS, 2 mM L-glutamine and 0.01 mg/ml Gentamicin Reagent Solution (GIBCO/Invitrogen). […]
(§1) PBMCs were collected by transferring the cells, including attached cells and those in suspension, into 50 ml tubes. […] Samples were sonicated on ice for 30 seconds, clarified by centrifugation at 16,000×g for 10 minutes at 4° C. and protein concentrations determined using Non-Interfering Protein Assay Kit (Geno Technology Incorporated, Maplewood, Mo.). […] For Western blotting, total Rb was detected using antibody from Pharmingen (BD Bioscience, San Diego, Calif.) at a dilution of 1:2000. Lysates were analysed by Western blotting for Rb phosphorylation using polyclonal antibodies against phosphorylated serine 795, serine 780, threonine 821 and serine 807/811 in human Rb (FIG. 8). […]

[4] = tested on: Rb phosphorylation in rat PBMCs; experiment: Rb phosphorylation in rat PBMCs following ex vivo PMA activation; assay type: cell-based; details: 300 ng/ml for 24 hours, Western blot
Experimental: PBMCs are not cycling cells and need to be stimulated with the mitogen PMA to enter the cell cycle.
Blood from three rats at the specified times was pooled (˜10 mls total) and PBMCs were separated using the Lymphocyte Separation Medium (LSM) and protocol supplied by ICN Biomedicals Inc. (Costa Mesa, Calif.). Briefly whole blood was diluted 1:1 with cold HBSS (Hanks Balanced Salt Solution), layered onto the LSM and centrifuged. The layer of mononuclear cells above the LSM was collected, transferred to a new tube and washed once with cold HBSS. Cells were resuspended in RPMI 1640, 10% HI-FBS, 2 mM L-glutamine and 0.01 mg/ml Gentamicin Reagent Solution (GIBCO/Invitrogen). Cells were seeded into T-75 cm^2 flasks at ≦1×10^7 cells in 20 mls medium and stimulated with 300 ng/ml of phorbol 12-myristate 13-acetate (PMA) for 24 hours. […]
as §1, with “1:2000.” for “1:2000. Lysates were analysed by Western blotting for Rb phosphorylation using polyclonal antibodies against phosphorylated serine 795, serine 780, threonine 821 and serine 807/811 in human Rb (FIG. 8).”

CN1CC[C@H](c2c(O)cc(O)c3c(=O)cc(-c4ccccc4Cl)oc23)[C@H](O)C1 [flavopiridol]
Rb phosphorylation in cells [1]: Inhibition of Rb phosphorylation | pRb in paired tumors (phosphorylated Rb; 6 paired tumors): no significant changes | pRb in buccal mucosa biopsies post treatment (phosphorylated Rb; patients with metastatic tumors): somewhat decreased

CC(=O)c1c(C)c2cnc(Nc3ccc(N4CCNCC4)cn3)nc2n(C2CCCC2)c1=O [PD 0332991]
Rb phosphorylation in cells [1]: Inhibition of Rb phosphorylation | Rb phosphorylation in tumor xenografts [2]: Inhibition of Rb phosphorylation

CCCCCCCCCCCCCC(=O)O[C@@H]1[C@@H](C)[C@@]2(O)[C@@H](C=C(CO)C[C@]3(O)C(=O)C(C)=C[C@@H]23)[C@@H]2C(C)(C)[C@]12OC(C)=O [PMA, phorbol 12-myristate 13-acetate]
Phosphorylation at serine 795 and serine 780 in human PBMCs ([3]; 300 ng/ml, 24, 48 and 72 hours post stimulation): not significant until 48-72 hours | Phosphorylation at serine 807/811 and threonine 821 sites in human PBMCs ([3]; 300 ng/ml, 24 hours post mitogen addition, five donors): Significant phosphorylation | Phosphorylated Rb in rat PBMCs after mitogen stimulation [4]: sufficient for detection of phosphorylated Rb

CC(C)(C)c1cnc(CSc2cnc(NC(=O)C3CCNCC3)s2)o1 [BMS-387032]
Rb phosphorylation in cells [1]: Inhibition of Rb phosphorylation

CC[C@H](CO)Nc1nc(NCc2ccccc2)c2ncn(C(C)C)c2n1 [CYC 202, r-Roscovitine]
Rb phosphorylation in cells [1]: Inhibition of Rb phosphorylation
